What was measured:
[1] = test system: Musca domestica; experiment: Musca domestica test; assay type: in vivo; details: application rate 100 ppm, adult houseflies, after 2 days
Method: (§1) • Solvent: dimethyl sulphoxide
(§2) To produce a suitable preparation of active compound, 10 mg of active compound are mixed with 0.5 ml of dimethyl sulphoxide, and the concentrate is diluted with water to the desired concentration.
Vessels containing a sponge treated with sugar solution and the active compound preparation of the desired concentration are populated with 10 adult houseflies (Musca domestica).
After 2 days, the kill in % is determined. 100% means that all of the flies have been killed; 0% means that none of the flies have been killed.

[2] = test system: Rhipicephalus sanguineus; experiment: Rhipicephalus sanguineus in vitro contact test with adult brown dog ticks; assay type: in vivo; details: after 48 h
Method: Rhipicephalus sanguineus—In Vitro Contact Tests with Adult Brown Dog Ticks
(§3) For the coating of the test tubes, 9 mg of active compound are first dissolved in 1 ml of acetone p.a. and then diluted to the desired concentration with acetone p.a. 250 μl of the solution are distributed homogeneously on the inner walls and the base of a 25 ml test tube by turning and rocking on an orbital shaker (rocking rotation at 30 rpm for 2 h). With 900 ppm active compound solution and internal surface 44.7 cm^2, given homogeneous distribution, an area-based dose of 5 μg/cm^2 is achieved.
After the solvent has evaporated off, the tubes are populated with 5-10 adult dog ticks (Rhipicephalus sanguineus), sealed with a perforated plastic lid and incubated in a horizontal position in the dark at room temperature and ambient humidity. After 48 h, efficacy is determined. To this end, the ticks are knocked to the floor of the tube and incubated on a hotplate at 45-50° C. for not more than 5 min. Ticks which remain motionless on the floor or move in such an uncoordinated manner that they are unable to deliberately avoid the heat by climbing upwards are considered to be dead or moribund.
An efficacy of 100% means that all the ticks were dead or moribund. 0% efficacy means that none of the ticks had been harmed.

[3] = logP by HPLC on reversed-phase column (C18), EEC Directive 79/831 Annex V.A8; assay type: physicochemical; details: HPLC, C18, acetonitrile (0.1% formic acid)/water (0.09% formic acid) gradient
[4] = test system: Tetranychus urticae; experiment: Tetranychus urticae spray test, OP-resistant; assay type: in vivo; details: after 6 days
Method: Tetranychus Urticae—Spray Test, OP-Resistant
(§4) • Solvent: 78.0 parts by weight of acetone • 1.5 parts by weight of dimethylformamide • Emulsifier: alkylaryl polyglycol ether
To produce further test concentrations, the preparation is diluted with emulsifier-containing water.
After 6 days, the efficacy in % is determined. 100% means that all the spider mites have been killed; 0% means that none of the spider mites have been killed.

[5] = test system: Phaedon cochleariae; experiment: Phaedon cochleariae spray test; assay type: in vivo; details: application rate 100 g/ha, after 7 days
Method: Phaedon Cochleariae—Spray Test
as §4
(§5) To produce a suitable preparation of active compound, 1 part by weight of active compound is dissolved using the stated parts by weight of solvent and made up with water containing an emulsifier concentration of 1000 ppm until the desired concentration is attained. To produce further test concentrations, the preparation is diluted with emulsifier-containing water.
After 7 days, the efficacy in % is determined. 100% means that all the beetle larvae have been killed; 0% means that no beetle larvae have been killed.

[6] = test system: Boophilus microplus Parkhurst strain, SP-resistant; experiment: Boophilus microplus dip test; assay type: in vivo; details: application rate 100 ppm, assessed after 7 days
Method: Boophilus microplus—Dip Test
• Test animals: cattle ticks (Boophilus microplus) Parkhurst strain, SP-resistant • Solvent: dimethyl sulphoxide
10 mg of active compound are dissolved in 0.5 ml of dimethyl sulphoxide. To produce a suitable formulation, the active compound solution is diluted with water to the concentration desired in each case.
This active compound preparation is pipetted into tubes. 8-10 engorged adult female cattle ticks (Boophilus microplus) are transferred into a further tube with holes. The tube is immersed into the active compound preparation, and all the ticks are completely wetted. After the liquid has run out, the ticks are transferred on filter discs into plastic dishes and stored in a climate-controlled room.
Efficacy is assessed after 7 days by laying of fertile eggs. Eggs which are not visibly fertile are stored in a climate-controlled cabinet until the larvae hatch after about 42 days. An efficacy of 100% means that none of the ticks has laid any fertile eggs; 0% means that all the eggs are fertile.

[7] = test system: Boophilus microplus; experiment: Boophilus microplus injection test; assay type: in vivo; details: application rate 20 μg/animal, assessed after 7 days
Method: Boophilus microplus—Injection Test • Solvent: dimethyl sulphoxide […] The animals are transferred into dishes and kept in a climate-controlled room. Efficacy is assessed after 7 days by laying of fertile eggs. Eggs which are not visibly fertile are stored in a climate-controlled cabinet until the larvae hatch after about 42 days.

[8] = test system: Ctenocephalides felis; experiment: Ctenocephalides felis oral test; assay type: in vivo; details: application rate 100 ppm in citrated cattle blood, after 2 days
Description: Ctenocephalides felis—Oral Test • Solvent: dimethyl sulphoxide […] Dilution with citrated cattle blood gives the desired concentration. About 20 unfed adult cat fleas (Ctenocephalides felis) are placed into a chamber which is closed at the top and bottom with gauze. A metal cylinder whose bottom end is closed with parafilm is placed onto the chamber. The cylinder contains the blood/active compound preparation, which can be imbibed by the fleas through the parafilm membrane.

[9] = test system: Spodoptera frugiperda; experiment: Spodoptera frugiperda spray test; assay type: in vivo; details: application rate 100 g/ha, after 7 days
Method: Spodoptera Frugiperda—Spray Test
as §4, §5
Leaf discs of maize (Zea mays) are sprayed with an active compound preparation of the desired concentration and, after drying, populated with caterpillars of the armyworm (Spodopterafrugiperda).
After 7 days, the efficacy in % is determined. 100% means that all the caterpillars have been killed; 0% means that no caterpillars have been killed.

[10] = test system: Amblyomma hebraeum; experiment: Amblyomma hebraeum test (tick nymphs, immersion); assay type: in vivo; details: application rate 100 ppm, after 42 days
Description: Amblyomma hebaraeum Test • Solvent: dimethyl sulphoxide […] Tick nymphs (Amblyomma hebraeum) are placed into perforated plastic beakers and immersed in the desired concentration for one minute. The ticks are transferred on filter paper into a Petri dish and stored in a climate-controlled cabinet.

[11] = test system: Lucilia cuprina; experiment: Lucilia cuprina test; assay type: in vivo; details: application rate 100 ppm, L1 larvae, after 2 days
Method: as §1, §2
About 20 L1 larvae of the Australian sheep blowfly (Lucilia cuprina) are transferred into a test vessel containing minced horsemeat and the active compound preparation of the desired concentration.
After 2 days, the kill in % is determined. 100% means that all the larvae have been killed; 0% means that no larvae have been killed.

[12] = test system: Ctenocephalides felis; experiment: Ctenocephalides felis in vitro contact test with adult cat fleas; assay type: in vivo; details: application rate 500 g/ha (5 μg/cm^2), after 48 h
Method: Ctenocephalides felis—In Vitro Contact Tests with Adult Cat Fleas
as §3
After the solvent has evaporated off, the tubes are populated with 5-10 adult cat fleas (Ctenocephalides felis), sealed with a perforated plastic lid and incubated in a horizontal position at room temperature and ambient humidity. After 48 h, efficacy is determined. To this end, the test tubes are stood upright and the fleas are knocked to the base of the tube. Fleas which remain motionless at the base or move in an uncoordinated manner are considered to be dead or moribund.
100% efficacy means that all the fleas were dead or moribund. 0% efficacy means that no fleas were harmed.

[13] = test system: Myzus persicae; experiment: Myzus persicae spray test; assay type: in vivo; details: application rate 100 g/ha, after 6 days
Method: Myzus Persicae—Spray Test […] To produce further test concentrations, the preparation is diluted with emulsifier-containing water. Discs of Chinese cabbage leaves (Brassica pekinensis) infested by all stages of the green peach aphid (Myzus persicae) are sprayed with an active compound preparation of the desired concentration.

[14] = application rate 500 g/ha (5 μg/cm^2)

Row | Structure (SMILES) | efficacy (kill in %) [1] | efficacy (ticks dead or moribund) [2, 14] | logP [3] | efficacy in % ([4]; application rate 20 g/ha) | efficacy in % [5] | efficacy (laying of fertile eggs) [6] | efficacy (laying of fertile eggs) [7] | efficacy (kill in %) [8] | efficacy in % [9] | efficacy (kill in %) [10] | efficacy (kill in %) [11] | efficacy in % ([4]; application rate 100 g/ha) | efficacy (fleas dead or moribund) [12] | efficacy (ticks dead or moribund) ([2]; application rate 20 g/ha (0.2 μg/cm^2)) | efficacy in % [13]
1 | O=C(NC1CC1)c1cc(-c2cn(-c3c(Cl)cc(C(F)(C(F)(F)F)C(F)(F)F)cc3Cl)nn2)cnc1Cl [Example 3] | 100% | 100% | 3.9 | 90% | 100% | 100% | 100% | 100% | 100% | 100% | 100% | – | – | – | –
2 | Cc1ncc(-c2cn(-c3c(Cl)cc(C(F)(C(F)(F)F)C(F)(F)F)cc3Cl)nn2)cc1C(=O)NC1(C#N)CC1 [Example 6] | 100% | – | 3.5 | – | 100% | 100% | 100% | 100% | 100% | – | 100% | 100% | 100% | – | –
3 | Cc1cc(C(F)(C(F)(F)F)C(F)(F)F)cc(C)c1-n1cc(-c2cnc(Cl)c(C(=O)NC3(C#N)CC3)c2)nn1 [Example 8] | 95% | 100% | 3.8 | – | 100% | 100% | 100% | 100% | – | 100% | 90% | 100% | 100% | – | –
4 | N#CC1(NC(=O)c2cc(-c3cn(-c4c(Cl)cc(C(F)(C(F)(F)F)C(F)(F)F)cc4Cl)nn3)cnc2Cl)CC1 [Example 9] | 100% | – | 3.8 | – | 100% | 100% | 100% | 100% | – | 100% | 100% | 100% | 100% | 100% | –
5 | Cc1cc(C(F)(C(F)(F)F)C(F)(F)F)cc(C)c1-n1cc(-c2cnc(C)c(C(=O)NC3(C#N)CC3)c2)nn1 [Example 12] | 100% | 80% | 3.4 | – | 100% | 80% | 100% | 100% | 100% | – | 100% | 100% | 100% | – | 90%
6 | Cc1cc(C(F)(C(F)(F)F)C(F)(F)F)cc(C(F)(F)F)c1-n1cc(-c2cnc(Cl)c(C(=O)NC3CC3)c2)nn1 [Example 13] | 100% | 100% | 3.9 | – | 100% | 100% | 100% | 100% | 100% | – | 100% | 100% | 100% | – | 90%
7 | Cc1cc(C(F)(C(F)(F)F)C(F)(F)F)cc(C(F)(F)F)c1-n1cc(-c2cnc(Cl)c(C(=O)NC3(C#N)CC3)c2)nn1 [Example 14] | 100% | 100% | 3.9 | – | 100% | 100% | 100% | 100% | 100% | – | 90% | 100% | 80% | – | –
8 | Cc1cc(C(F)(C(F)(F)F)C(F)(F)F)cc(C(F)(F)F)c1-n1cc(-c2cnc(Cl)c(C(=O)N(C)C3CC3)c2)nn1 [Example 15] | 100% | – | 4.3 | – | 100% | 100% | 100% | 100% | 100% | – | 100% | 100% | 100% | – | 90%
9 | N#CC1(NC(=O)c2cc(-c3cn(-c4c(Cl)cc(C(F)(C(F)(F)F)C(F)(F)F)cc4C(F)(F)F)nn3)cnc2Cl)CC1 [Example 17] | 100% | – | 3.9 | – | 100% | 100% | 100% | 100% | – | – | 100% | 100% | 100% | – | –
10 | CN(C(=O)c1cc(-c2cn(-c3c(Cl)cc(C(F)(C(F)(F)F)C(F)(F)F)cc3OC(F)(F)F)nn2)cnc1Cl)C1CC1 [Example 35] | 100% | – | 4.6 | – | 100% | – | 100% | 100% | 100% | – | 100% | 100% | – | – | 90%
